US10940188B2, “Compounds and methods for treatment and prevention of Flavivirus infection” (priority 2016, dated 2021)
Like-named read-outs stand apart in the source and are kept apart here.

Test system: ZIKV (FSS13025, PRVABC59, MR766) in SNB-19 cells
Assay: Anti-ZIKV activity in SNB-19 cells (NS1 Western blot, NS1 ELISA, immunofluorescence)
Format: cell-based, Zika virus
Details: for time-of-addition effect on ZIKV infection / IC50: SNB-19 cells; for time-of-addition effect on ZIKV infection: PRVABC59, added 1 hour before or 4 hours after inoculation; for anti-ZIKV activity in SNB-19 cells: compound added 1 hour prior to infection; for IC50: all three strains of ZIKV, read-out: IC50 of inhibition of ZIKV (NS1 read-out)
Experimental: FIGS. 2A-1, 2A-2, 2B-1, 2B-2, 2C-1, 2C-2, 2D-1, 2D-2, 2D-3, 2E-1, 2E-2, and 2F. […] Screening of select compounds for antiviral activity against ZIKV infection was carried out. Glioblastoma SNB-19 cells were treated with indicated compound at 10×AC50 (determined in the primary caspase screen) for 1 hour prior to inoculation with FSS-13025 (at MOI=1). Cells were harvested 24 hours post infection and analyzed by Western blot for ZIKV-NS1 or GAPDH (FIGS. 2A-1 and 2A-2). […] Three strains of virus (FSS-13025, PRVABC59, and MR766; MOI=1) were tested. Shown are sample western blot images (FIG. 2B-1) and ImageJ quantification (FIG. 2B-2). Values represent mean±s.d. (n=3; ***P<0.001; One-way ANOVA). Titration of Emricasan on SNB-19 cells for anti-ZIKV activity was conducted similarly (FIGS. 2C-1 and 2C-2). Values represent mean±s.d. […] Sample western blot (FIG. 2D-2) and ImageJ quantification (FIG. 2D-3) are shown for infection with the PRVABC59 strain (MOI=1). Results for additional strains are shown in FIGS. 6A-F. Values represent mean±s.d. (n=2; **P<0.01; ***P<0.001; One-way ANOVA). […] The concentration of NS1 in the medium of infected SNB-19 cells collected 24 hours post-infection was quantified by a ZIKV-NS1 ELISA kit (FIGS. 2E-1 and 2E-2). Values represent mean±s.d. (n=3; ***P<0.001; One-way ANOVA). […] SNB-19 cells were treated with each indicated compound at increasing concentrations for 1 hour before infection with PRVABC59 at a MOI=0.5 (n=3 cultures). Cell culture supernatant was collected 24 hours after infection, and infectious virions were quantified for focus-forming units (FFU) using Vero cells. Data represent mean±s.d.
FIGS. 3A, 3B, 3C-1, 3C-2, 3C-3, 3C-4, 3C-5, 3D-1, 3D-2, and 3E. […] SNB-19 cells were treated with the indicated compound at 92 μM for one hour prior to infection with FSS13025 or PRVABC59 (MOI=1). Cells were harvested 24 hours post infection and analyzed by western blot for ZIKV-NS1 or GAPDH. Shown are sample images and quantification (FIGS. 3D-1 and 3D-2). Values represent mean±s.d. (n=2; ***P<0.01; One-way ANOVA). Data were normalized to those obtained for DMSO-treated cells. Values represent mean±s.d. *P<0.05; **P<0.01; ***P<0.001; by one-way ANOVA, as compared to DMSO-treated cells.
FIGS. 18A, 18B, 18C-1, 18C-2, 18D, 18E, 18F, 18G-1, and 18G-2. […] 24 hours post infection, supernatants from SNB-19 cells were titrated onto naïve vero cells plated in a monolayer in 96-well plates for infectious focus-forming unit assay as previously described and focus forming units quantified. […] Immunofluorescence (IF) staining (FIG. 18C-1) and quantification (FIG. 18C-2) of ZIKV positive SNB-19 cells following infection with one of three ZIKV strains and treatment with emetine at 0.01, 0.1, or 1 μM. […] Drug was added at 1 μM either 1-hour prior to infection with PRVABC59-ZIKV, or 4-hours post infection with PRVABC59-ZIKV. […] Drug was added at 1 μM either 1-hour prior to infection with PRVABC59-ZIKV, or 4-hours post infection with PRVABC59-ZIKV.
Cells were harvested by trypsinization, pelleting, and subsequent lysis in 1× Laemlli buffer and boiled, or directly lysed in 1× Laemlli buffer and boiled. Antibodies used were anti-ZIKV NS1 (1:2000; BF-1225-36, BioFront Technologies, Tallahassee, Fla.) or GAPDH (Santa Cruz Biotechnology, Texas).

Row | Compound | time-of-addition effect on ZIKV infection | anti-ZIKV activity in SNB-19 cells | IC50 (Zika virus) [µM] | IC50 [µM]
1 | CC[C@H]1CN2CCc3cc(OC)c(OC)cc3[C@@H]2C[C@@H]1C[C@H]1NCCc2cc(OC)c(OC)cc21 [Emetine] | effective against ZIKV infection when added both before or after infection | reduces ZIKV infection in a dosage dependent manner | – | –
2 | C[C@H](NC(=O)C(=O)Nc1ccccc1C(C)(C)C)C(=O)N[C@@H](CC(=O)O)C(=O)COc1c(F)c(F)cc(F)c1F [Emricasan] | – | no significant differences were found | – | –
3 | O=C(Nc1ccc([N+](=O)[O-])cc1Cl)c1cc(Cl)ccc1O [Niclosamide] | effectively inhibited ZIKV infection when added either 1 hour before or 4 hours after virus inoculation | significantly inhibited ZIKV infection in SNB-19 cells | 0.5 to 2 | –
4 | CC(=O)Nc1ccc([C@H](C)C(=O)Nc2ncc(C(C)C)s2)cc1 [PHA-690509] | effectively inhibited ZIKV infection when added either 1 hour before or 4 hours after virus inoculation | significantly inhibited ZIKV infection in SNB-19 cells | – | 12 to 36
